In PMC11528066, “Noninvasive Monitoring of Programmed Death-Ligand 2 Expression with Positron Emission Tomography using ^68Ga-labeled Peptide Antagonist in Preclinical and Exploratory Human Studies” (Research, 2024):
Peptide text beside a SMILES is read from it. * marks the point of attachment. NOTA = O=C(O)CN1CCN(CC(=O)O)CCN(CC(=O)*)CC1; AEEEA = NCCOCCOCCOCC(=O)O

Legend:
[1] = Partition coefficient (log P), 1-octanol/PBS; type: physicochemical; conditions: shake-flask 3 mL 1-octanol / 3 mL PBS pH 7.4, vortex 10 min, centrifugation 10,000 rpm 10 min, γ-counter, mean ± SD, n = 5
Protocol: The partition coefficients were assessed using the method described previously. [^68Ga]Ga-HN11-1 and [^68Ga]Ga-HN11-2 was respectively introduced into a mixture comprising 3 mL of 1-octanol and 3 mL of phosphate-buffered saline (PBS) with a pH of 7.4. Following vortexing for 10 minutes and subsequent centrifugation at 10,000 rpm for 10 minutes, samples were taken from both layers and counted using a γ-counter. The log P was determined using the formula: log P = log([M]oct/[M]aq). All measurements were conducted using 5 independent samples and are presented as mean ± standard deviation (SD).

[2] = In vitro stability in saline (radio-HPLC); type: physicochemical; conditions: room temperature, over 4 h (0.5, 1, 2, 4 h), 3.74 MBq
Protocol: The in vitro stability of [^68Ga]Ga-HN11-1 and [^68Ga]Ga-HN11-2 (3.74 MBq) in saline and serum was tested by radio-HPLC analysis of its radiochemical purity after incubation at room temperature for 0.5 , 1 , 2 and 4 h.

[3] = test system: A549-PD-L2 tumor xenograft models; assay: Dynamic micro-PET imaging in A549-PD-L2 xenografts; type: in vivo, BALB/C nude mice; conditions: n = 3
Protocol: (§1) Micro-PET imaging was conducted using an Inveon PET scanner (Siemens, Germany). Dynamic PET examine were acquired over the first 60 min following the simultaneous injection of 7.4 to 9.25 MBq (200 to 250 μCi) of [^68Ga]Ga-HN11-1 and [^68Ga]Ga-HN11-2. After reconstructing the images and delineating the regions of interest (ROIs), time-radioactivity curves were plotted to obtain the Tumor/Muscle (T/M) ratios. %ID/g represents the percentage of the injected dose of the radiotracer that accumulates in a specific tissue per gram of tissue weight. For the biodistribution study, the xenograft models received an intravenous injection of 3.7 to 5.5 MBq (100 to 150 μCi) of [^68Ga]Ga-HN11-1. After the designated period (10, 30, 60, and 90 min), the mice were euthanized, and important tissues and organs were dissected and collected. The samples were counted using the γ-counter for determining the %ID/g, presented as mean ± standard deviation (SD).
A549 cell lines were provided by the China Center for Type Culture Collection (CCTCC) and cultured in RPMI-1640 medium supplemented with 10 % fetal bovine serum and 100 U/mL penicillin-streptomycin. The lentivirus system was implemented to introduce PD-L2 (PDCD1LG2) over-expressed cDNA into the A549 cells. The viral vectors were produced in 293T cells and co-transfected with the psAX2, pMD2G and PD-L2 plasmids. A549 cells transduced with the vectors were selectively grown in 1.6 μg/mL puromycin. Transfection efficiency was identified by WB and real-time quantitative PCR. All the cells were cultured in an incubator at 37° C with 5 % CO2 atmosphere. A549 and A549-PD-L2 cells (5 × 10^6, 200 μL)were subcutaneously implanted into the right shoulder of BALB/C nude mice (male, 4-6 weeks), respectively. When the tumors reached to 5 - 8 mm in diameter, the mice were subjected to in vivo and ex vivo studies. All the mice were purchased from the Laboratory Animal Center of Central South University.

[4] = test system: A549 tumor xenograft models; assay: Dynamic micro-PET imaging in A549 xenografts; type: in vivo, BALB/C nude mice; conditions: each time point 10 to 60 min, n = 3
Protocol: as §1
A549 cell lines were provided by the China Center for Type Culture Collection (CCTCC) and cultured in RPMI-1640 medium supplemented with 10 % fetal bovine serum and 100 U/mL penicillin-streptomycin. The lentivirus system was implemented to introduce PD-L2 (PDCD1LG2) over-expressed cDNA into the A549 cells. […] Transfection efficiency was identified by WB and real-time quantitative PCR. […]

[5] = test system: A549-PD-L2 xenograft models; assay: Static PET/CT imaging with blocking; type: in vivo, BALB/C nude mice; conditions: 60 min, pretreatment i.v. with excess HN11-1 / HN11-2 (10 mg/kg), n = 3
Protocol: The static PET/CT imaging in A549 and A549-PD-L2 xenograft models after injection of 5.55 to 7.4 MBq (150 to 200 μCi) of [^68Ga]Ga-HN11-1 or [^68Ga]Ga-HN11-2 were acquired at 60 min. In the [^68Ga]Ga-HN11-1 + block or [^68Ga]Ga-HN11-2 + block groups, the xenograft models underwent pretreatment via intravenous injection of HN11-1 or HN-2 (10 mg/kg) before PET/CT imaging. Then, ROIs were delineated for each group. After imaging, tumor tissues from both the A549 and A459-PD-L2 xenograft tumors were extracted, and the PD-L2 expression was tested by IHC. For the pharmacokinetics study, healthy BALB/C mouse received an intravenous injection of 5.55 MBq (150 μCi) of [^68Ga]Ga-HN11-1 and [^68Ga]Ga-HN11-2. Measure the activity of blood samples (%ID/g, mean ± SD) at the corresponding time points, and the time-activity curve was plotted. Subsequently, pharmacokinetic parameters were tested using the noncompartmental model in Phoenix WinNonlin 8.1 software (Certara, USA).

[6] = biological target: T1, PD-L2 (Homo sapiens, UniProt Q9BQ51); assay: [^68Ga]Ga-HN11-1 PET/CT imaging in cancer patients; type: in vivo
T1 construct: from tissue; host or cells: tumour lesions (NSCLC, recurrent or metastatic HNSCC) in living patients
T1 sequence (Q9BQ51 20-273): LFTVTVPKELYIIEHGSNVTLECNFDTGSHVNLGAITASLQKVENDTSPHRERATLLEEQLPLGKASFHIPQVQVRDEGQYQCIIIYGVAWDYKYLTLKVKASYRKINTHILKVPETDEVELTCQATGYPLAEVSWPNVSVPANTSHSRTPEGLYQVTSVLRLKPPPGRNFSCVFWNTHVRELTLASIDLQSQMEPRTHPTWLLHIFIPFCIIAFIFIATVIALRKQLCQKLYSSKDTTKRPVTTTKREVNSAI
Protocol: (§2) The program content was explained to all healthy volunteers and cancer patients, and written informed consent was obtained. Whole-body dynamic imaging was conducted for 60 min using a PET/CT 690 Elite scanner (GE Discovery) immediately after intravenous injection of [^68Ga]Ga-HN11-1 (3.1 to 4.9 MBq/kg). A static body scan was performed 15 to 45 min after injection. All cancer patients underwent [^18F]F-FDG and [^68Ga]Ga-HN11-1 PET/CT imaging within 5 d. Two nuclear medicine physicians reconstructed and reviewed the images on GE aw 4.6 workstations and reached a consensus. They delineated the ROIs and measured the values of maximum standard uptake and average standard uptake (SUVmax and SUVmean). The biological distribution of [^68Ga]Ga-HN11-1 in healthy volunteers was determined by SUVmax and SUVmean. The OLINDA/EXM software (version 1.0, Hermes Medical Solutions AB) was used to estimate the human radiation dose based on the SUVmean of each organ.

[7] = Safety after intravenous injection in volunteers and patients; type: in vivo, human; conditions: 3 healthy volunteers and 6 patients, intravenous injection 3.1 to 4.9 MBq/kg
Protocol: as §2

CC[C@H](C)[C@H](NC(=O)[C@H](CCCNC(=N)N)NC(=O)CNC(=O)[C@H](CCC(=O)O)NC(=O)[C@H](CC(N)=O)NC(=O)[C@H](Cc1ccc(O)cc1)NC(=O)[C@H](CCCNC(=N)N)NC(=O)[C@H](Cc1ccc(O)cc1)NC(=O)[C@H](Cc1c[nH]cn1)NC(=O)COCCOCCOCCNC(=O)CN1CCN(CC(=O)O)CCN(CC(=O)O)CC1)C(=O)N[C@@H](CCCNC(=N)N)C(=O)N[C@@H](CC(N)=O)C(=O)O [[^68Ga]Ga-HN11-1, metal not drawn] ({NOTA-AEEEA}-HYRYNEGRIRN-OH)
logD [1]: -0.3 ± 0.0017 | in vitro stability in saline (radiochemical purity) [2]: > 95% | tumor uptake ([3]; 10 min after injection): 2.61 ± 0.16 %ID/g | tumor uptake ([3]; 20 min after injection): 2.97 ± 0.18 %ID/g | tumor uptake ([3]; 30 min after injection): 3.36 ± 0.29 %ID/g | tumor uptake ([3]; 40 min after injection): 3.22 ± 0.23 %ID/g | tumor uptake ([3]; 50 min after injection): 3.06 ± 0.36 %ID/g | tumor uptake ([3]; 60 min after injection): 2.76 ± 0.42 %ID/g | tumor uptake in A549 tumor xenograft models [4]: almost negligible | tumor uptake after blocking [5]: 0.74 ± 0.03 %ID/g | median SUVmax ([6]; all patients, n = 6): 3.25 | HN11-1 SUVmax ([6]; patient 1, NSCLC, lung, PD-L2 expression 80 %): 4.1 | HN11-1 SUVmax ([6]; patient 2, NSCLC, lung, PD-L2 expression 15 %): 2.1 | HN11-1 SUVmax ([6]; patient 3, rHNSCC, buccal): 4.0 | HN11-1 SUVmax ([6]; patient 4, rHNSCC, buccal): 3.0 | tolerability / adverse pharmacological reactions [7]: well tolerated and without adverse pharmacological reactions observed
